The source of these data is PubChem BioAssay (NCI).

The structures appear in SMILES notation.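 48-hour exposure; five concentrations; linearly interpolated endpoints. TGI: total growth inhibition.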

Holding throughout (test): NCI-60 cell line screen, 48 h
In test [1] the test system is UO-31 renal.
Test [2] deals with K-562 leukemia.
Test [3] deals with SNB-19 CNS.
Test [4] deals with SF-295 CNS.
Test [5] concerns SR leukemia.
For test [6], the system named is SK-MEL-28 melanoma.
Test [7] deals with A549 NSCLC.
Test [8] concerns OVCAR-5 ovarian.
Test [9] has as its system SF-539 CNS.
In test [10] the test system is IGROV1 ovarian.
The test system of test [11] is M14 melanoma.
Test [12] concerns NCI-H226 lung.
Test [13] deals with HCT-116 colon.
For test [14], the system named is LOX IMVI melanoma.
The test system of test [15] is SW-620 colon.
Test [16] concerns UACC-62 melanoma.
The subject of test [17] is PC-3 prostate.
In test [18] the test system is MDA-MB-231 breast.

In the case of `CC(C)(C)C(=O)/C=C/c1cccc(Oc2ccccc2)c1`, the TGI in [1] is 28.8 µM; in test [2], 30.1 µM; in test [3], 30 µM; in test [4] it was 25.8 µM; in test [5], over 100 µM; in test [6], 34.1 µM. Besides, the TGI in test [7] worked out at 48.8 µM; in test [8], 32.8 µM; in [9], 40.2 µM; in test [10] it was 78 µM; in [11] it was 34.7 µM; in [12], 33.4 µM. The same compound gave a TGI in [13] of 31 µM.

For the compound `CCCc1c(C(=O)OCC)[nH]c(C(=O)CCC(=O)c2[nH]c(C(=O)OCC)c(CCC)c2C(=O)OCC)c1C(=O)OCC`, the TGI in test [1], in test [2], in [14], in [15], in [3] and in test [4] was over 100 µM in each case. The TGI in test [5], in [16], in test [6], in [7], in test [8] and in test [9] was over 100 µM throughout. The TGI in test [10], in test [11], in test [12] and in test [13] was over 100 µM each time.

Consider `CC[C@H]1C=CCC[C@@]2(C[C@@H]3CC[C@H]4[C@H](C(=O)OCCCCCCCCCCCCCCCC(=O)N(CCCN)C[C@@H](O)CCN)[C@]5(CCC[C@@H](C)O5)NC(=[N+]34)N2)O1`, for which the TGI in [1] came to 1.69 µM; in test [2], 1.05 µM; in [14], 1.38 µM; in test [15], 3.51 µM; in [3] it was 2.93 µM; in test [4] it was 3.31 µM. Further, the TGI in [5] was determined as 1.23 µM; in test [16], 0.412 µM; in test [6], 3.98 µM; in [7] it was 1.74 µM; in [8], 1.78 µM; in test [9], 3.32 µM. Further, the TGI came to 2.02 µM in [10]; 2.06 µM in test [17]; 0.495 µM in test [11]; 3.32 µM in test [12]; 1.31 µM in test [13].

With `CC/C(SC)=[N+](\C)[O-]`, the TGI in test [1] is over 100 µM; in [2] it was over 100 µM; in test [14] it was over 55.8 µM; in [15], over 100 µM; in test [3], over 100 µM; in [4], over 100 µM. The TGI in test [5] is 50 µM; in test [16] it was over 100 µM; in test [6] it was over 100 µM; in [7] it was over 100 µM; in test [8] it was over 100 µM; in test [9], over 100 µM. Moreover, the TGI in test [10] is over 100 µM; in test [11] it was over 100 µM; in test [12], over 100 µM; in test [13], over 68.4 µM.

As to `Fc1ccc2c3c([nH]c2c1)CCNC3`, the TGI in [1] was 99.7 µM; in test [2], over 100 µM; in [14] it was over 100 µM; in test [15], over 100 µM; in [3], over 100 µM; in test [4], over 100 µM. Also, the TGI in [5], in test [16], in test [6], in test [7], in test [8] and in test [9] was over 100 µM throughout. Further, the TGI in [18], in test [10], in test [11], in test [12] and in test [13] was over 100 µM throughout.

Turning to `COc1ccc(C2S/C(=C\c3ccccc3)C(=O)N2NC(=O)Cc2ccccc2)cc1` (centres undefined), the TGI in test [1], in test [2], in test [14], in test [15], in test [4] and in test [5] was over 100 µM throughout. The TGI in test [16], in test [6], in test [7], in [8], in test [9] and in test [10] was over 100 µM each time. Also, the TGI in [11], in [12] and in test [13] was over 100 µM each time.

As for `C/C(=N/NC(N)=S)C(CN(C)C)C(C1=C(O)c2ccccc2OC1)c1ccccc1` (centres undefined), the TGI in [1], in test [2], in test [14], in [15], in [3] and in test [4] was over 100 µM throughout. Moreover, the TGI in test [5], in test [16], in test [6], in test [7], in test [8] and in test [9] was over 100 µM each time. In addition, the TGI in test [10], in test [11], in test [12] and in test [13] was over 100 µM throughout.

For `CN1N=C2c3ccccc3CC[C@H]2C1c1cccc(O)c1` (some centres undefined), the TGI in test [1], in test [2], in [14], in test [15], in [3] and in test [4] was over 100 µM each time. Also, the TGI in test [5], in [16], in test [6], in test [7], in [8] and in [9] was over 100 µM in each case. The TGI in test [10], in test [11], in test [12] and in [13] was over 100 µM throughout.

Take `COC(=O)C(=O)C(C(=O)OC)C(=O)C(=O)Nc1cc(Cl)c(Cl)cc1Cl` (centres undefined): the TGI was over 100 µM in [1]; over 100 µM in test [2]; over 100 µM in test [14]; over 100 µM in [3]; over 100 µM in test [4]; 56.7 µM in test [5]. In addition, the TGI in test [16], in test [6], in [7], in test [8], in test [9] and in test [10] was over 100 µM in each case. The TGI in test [11] was over 100 µM; in [12], over 100 µM; in [13], 75.8 µM.

Regarding `O=C(Nc1ccc(Cl)cc1)NS(=O)(=O)c1c(-c2ccccc2)oc2ccccc2c1=O`, the TGI in [1], in test [2], in test [14], in test [15], in test [3] and in test [4] was over 100 µM throughout. Moreover, the TGI in [5] was over 100 µM; in test [16] it was 13.6 µM; in [6], over 100 µM; in test [7], over 100 µM; in test [8] it was over 100 µM; in [9], over 100 µM. The TGI in test [10], in test [17], in test [12] and in test [13] was over 100 µM throughout.

With `CC1=C2CN(C(=O)OCC(C)C)CCC2C2=C(C(=O)c3ccccc3C2=O)C1C` (centres undefined), the TGI in test [2], in test [14], in test [15], in test [4], in test [5] and in test [16] was over 10 µM each time. The TGI in test [6], in test [7], in test [18], in test [10], in test [17] and in test [11] was over 10 µM throughout.

As for `CC1c2cc(c3c(c2O)CN([C@@H](C)C2CCCCC2)CO3)C(C)c2cc(c3c(c2O)CN([C@@H](C)C2CCCCC2)CO3)C(C)c2cc(c3c(c2O)CN([C@@H](C)C2CCCCC2)CO3)C(C)c2cc1c1c(c2O)CN([C@@H](C)C2CCCCC2)CO1` (some centres undefined), the TGI in test [1] was 3.21 µM; in [2] it was 2.01 µM; in test [3], 3.44 µM; in [5], 1.44 µM; in test [16] it was 3.86 µM; in [6], 3.55 µM. The TGI in [7] was over 100 µM; in [8] it was 4.04 µM; in test [18] it was 2.7 µM; in test [10], 2.61 µM; in test [11], over 23.7 µM; in test [12], 2.22 µM. The TGI in [13] is 2.04 µM.

Take `COC(=O)N/N=C(/Cc1occc(=O)c1O)C(=O)Nc1ccc([N+](=O)[O-])cc1[N+](=O)[O-]`: the TGI in [1], in test [2], in [14], in [15], in test [3] and in test [4] was over 100 µM in each case. Further, the TGI in test [5], in [16], in test [6], in [7], in test [8] and in test [9] was over 100 µM in each case. For the same compound, the TGI in test [10], in test [11], in test [12] and in test [13] was over 100 µM in each case.

For `O=C1NC2C(CCO)CC=C[C@H]2c2cc3c(cc21)OCO3` (some centres undefined), the TGI in test [1], in [2], in [14], in test [15], in test [3] and in test [4] was over 100 µM each time. Also, the TGI in test [5], in test [16], in test [6], in test [7], in [9] and in test [10] was over 100 µM each time. For the same compound, the TGI in test [11], in [12] and in [13] was over 100 µM each time.

Take `COC(=O)c1ccccc1C1CN=NC12Cc1cc(C)cc(C)c1C2=O` (centres undefined): the TGI in [1], in [2], in test [14], in [15], in test [3] and in test [4] was over 100 µM in each case. The TGI in test [16], in [6], in [7], in test [8], in test [9] and in test [18] was over 100 µM throughout. Besides, the TGI in test [10], in [17], in [11], in [12] and in test [13] was over 100 µM in each case.

Consider `O=C1C=C2CC[C@H]3[C@@H]4CC[C@H](OC(=O)c5cccc6cc7ccccc7nc56)[C@H]4CC[C@@H]3[C@H]2CC1`, for which the TGI in [1] was over 100 µM; in [2], over 100 µM; in test [14], 29.7 µM; in test [15], over 100 µM; in test [3], over 100 µM; in [4], over 100 µM. In addition, the TGI in test [16], in test [6], in test [7], in test [8], in [9] and in test [18] was over 100 µM each time. In addition, the TGI in [10], in test [17], in test [11], in test [12] and in test [13] was over 100 µM in each case.

As to `CN(C)c1nc(=NCc2cccnc2)ss1`, the TGI in [2], in [14], in test [15], in [4], in test [5] and in test [16] was over 10 µM throughout. In addition, the TGI in test [6], in test [7], in test [18], in test [10], in test [17] and in test [11] was over 10 µM in each case.
